Laboratory results from PMC11892870 (PLOS One, 2025).
Read-outs that look alike come from different tables or passages of the source.

Assays:
[1] = system: scopolamine-induced amnesic mice; experiment: Modified Y-maze test, scopolamine-induced amnesia; format: in vivo
male ICR mice = experiment: Locomotor activity and spontaneous alternation in Y-maze; format: in vivo; conditions: donepezil 3 mg/kg p.o., average of 7 mice
Method: Scopolamine was dissolved in NSS. Donepezil and crude extract were dissolved in corn oil. Animal doses were calculated according to mice body weight. […].
Sixty male ICR mice in age 6 weeks (34-44 g) were supplied from Northeast Laboratory Animal Center, KKU. Before conducting the experiments, they were acclimatized for a week with a 12h light-dark cycle and had free access to their diet and water. Their body weight was recorded every day. […] Investigators could not be blinded to the mouse groups due to the difference in code colors. However, the investigators who assessed the mouse’s behavior were blinded to the mouse code for providing unbiased data. The parameters related to behavioral changes were assessed including the number of arm entries, the exploration time spent, and the time spent in a preference quadrant.
Locomotor activity was investigated in a black polyvinyl chamber Y maze. The size of the chamber is 40 cm long, 3 cm wide at the bottom and 10 cm wide at the top, and 12 cm high in each arm. Mice were first allowed to acclimate the chamber and freely moved in Y maze for 8 minutes. After acclimatization, the locomotor activity was measured for 1 hour following the treatment administration. The number of arm entries was recorded from the middle of the maze.

[2] = system: scopolamine-induced amnesic mice; experiment: Morris water maze test, scopolamine-induced amnesia; format: in vivo
[3] = system: scopolamine-induced amnesic mice; experiment: Novel object recognition test, scopolamine-induced amnesia; format: in vivo
Aβ1-42 = molecular target: T1, Aβ1-42 (Homo sapiens, UniProt P05067); experiment: Inhibition of Aβ1-42 aggregation (fibril formation), ThT fluorescence; format: biochemical
T1 construct: Aβ1-42 was firstly dissolved in HFIP
Text: (§1) Then, the solvent was dried in hood using nitrogen, and reconstituted to working solution with 0.5 M phosphate buffer (pH 7.4).

BChE = BChE (Homo sapiens, UniProt P06276); experiment: biochemical; conditions: mean ± SD, n = 3; read-out: BChE inhibition IC50
DPPH radical scavenging = conditions: read-out: Antioxidant DPPH IC50
Method: (§2) The mixtures were kept in the dark for 30 minutes and then the absorbance was measured at 550 nm. In case of ABTS assay, ABTS radical cation (ABTS • + ) was prepared from a mixture of the ABTS stock solution (7 mM) and potassium persulfate (2.45 mM) in water. The mixture was then kept in the dark for 12-16 hours before use. Then, the ABTS • + solution was diluted in ethanol until the absorbance reached 0.70 ± 0.02 at […].
(§3) Trolox was used as a positive control in both assays, while a mixture of ethanol and DPPH or ABTS • + solution served as the negative control. The percentage inhibition of DPPH and ABTS radicals was calculated using the following equation:
(§4) DPPHandABTSinhibition%=A0−A1/A0×100
(§5) A0 is the absorbance of the control and A1 is the absorbance of the sample.

AChE = AChE (Homo sapiens, UniProt P22303); experiment: biochemical
ABTS radical scavenging = conditions: read-out: Antioxidant ABTS IC50
Method: as §2, §3, §4, §5

[4] = Cytotoxicity in differentiated SH-SY5Y cells, MTT; format: cell-based; conditions: human
Method: (§6) Neuroblastoma cells (SH-SY5Y) were maintained in humidified atmosphere at 37 °C with 5%CO2 in DMEM/F12 supplement with 10%FBS. Afterward, cells were treated for 6 days and replaced every 3 days with 1%FBS supplementation and 10 μM of retinoic acid. Cells were seeded (100,000 cells per well) in 96-well microplates and cultured for 48 hours before treatment. […] Cell viability was assessed using MTT assay. Absorbance at 570 nm was measured for both treated and untreated samples, with viability expressed as a percentage relative to the control.

Aβ1-42 fibrils = molecular target: T2, Aβ1-42 fibrils (Homo sapiens, UniProt P05067); experiment: biochemical; conditions: read-out: Aβ destabilization IC50
T2 construct: Aβ1-42 was firstly dissolved in HFIP
Text: as §1

SH-SY5Y cells = experiment: Cytotoxicity in differentiated SH-SY5Y cells, MTT; format: cell-based; conditions: 100 µM, SH-SY5Y, MTT, average of 5
Method: as §6

[5] = long-term memory (24 h delay), donepezil 3 mg/kg p.o. + scopolamine 1 mg/kg i.p.
[6] = short-term memory, donepezil 3 mg/kg p.o. + scopolamine 1 mg/kg i.p.
[7] = read-out: Inhibition of Aβ formation IC50
[8] = mean ± SD, n = 3, read-out: AChE inhibition IC50
[9] = differentiated SH-SY5Y neuroblastoma cells, 0.1 µM, SH-SY5Y, MTT, average of 5, read-out: %Cell viability (cytotoxicity)
[10] = differentiated SH-SY5Y neuroblastoma cells, 1 µM, SH-SY5Y, MTT, average of 5, read-out: %Cell viability (cytotoxicity)
[11] = differentiated SH-SY5Y neuroblastoma cells, 10 µM, SH-SY5Y, MTT, average of 5, read-out: %Cell viability (cytotoxicity)
[12] = differentiated SH-SY5Y neuroblastoma cells, 100 µM, SH-SY5Y, MTT, average of 5, read-out: %Cell viability (cytotoxicity)
[13] = 0.1 µM, SH-SY5Y, MTT, average of 5, read-out: %Cell viability (cytotoxicity)
[14] = 1 µM, SH-SY5Y, MTT, average of 5, read-out: %Cell viability (cytotoxicity)
[15] = 10 µM, SH-SY5Y, MTT, average of 5, read-out: %Cell viability (cytotoxicity)
[16] = 100 µM, SH-SY5Y, MTT, average of 5, read-out: %Cell viability (cytotoxicity)
[17] = long-term memory (24 h delay), scopolamine 1 mg/kg i.p. alone
[18] = short-term memory, scopolamine 1 mg/kg i.p. alone

Chain of BChE (P06276 29-602, species assumed): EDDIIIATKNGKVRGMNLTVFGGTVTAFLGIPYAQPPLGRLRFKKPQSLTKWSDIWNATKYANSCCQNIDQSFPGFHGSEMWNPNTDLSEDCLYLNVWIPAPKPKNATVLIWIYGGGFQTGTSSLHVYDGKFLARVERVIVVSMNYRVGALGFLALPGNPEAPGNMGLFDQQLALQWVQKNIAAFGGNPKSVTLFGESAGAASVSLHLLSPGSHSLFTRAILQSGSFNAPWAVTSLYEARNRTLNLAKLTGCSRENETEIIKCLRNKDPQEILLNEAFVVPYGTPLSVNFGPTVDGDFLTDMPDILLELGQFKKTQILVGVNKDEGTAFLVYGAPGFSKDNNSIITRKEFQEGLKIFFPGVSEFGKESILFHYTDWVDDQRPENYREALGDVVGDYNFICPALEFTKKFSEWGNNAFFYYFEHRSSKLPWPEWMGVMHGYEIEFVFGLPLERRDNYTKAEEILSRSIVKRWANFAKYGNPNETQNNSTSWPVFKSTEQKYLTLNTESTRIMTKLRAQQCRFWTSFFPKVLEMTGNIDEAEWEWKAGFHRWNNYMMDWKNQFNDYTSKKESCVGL
T1 sequence (P05067 672-713 limits assumed): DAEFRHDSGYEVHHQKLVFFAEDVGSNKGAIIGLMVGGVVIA
T2 sequence (P05067 672-713 limits assumed): as above
Chain of AChE (P22303 32-614): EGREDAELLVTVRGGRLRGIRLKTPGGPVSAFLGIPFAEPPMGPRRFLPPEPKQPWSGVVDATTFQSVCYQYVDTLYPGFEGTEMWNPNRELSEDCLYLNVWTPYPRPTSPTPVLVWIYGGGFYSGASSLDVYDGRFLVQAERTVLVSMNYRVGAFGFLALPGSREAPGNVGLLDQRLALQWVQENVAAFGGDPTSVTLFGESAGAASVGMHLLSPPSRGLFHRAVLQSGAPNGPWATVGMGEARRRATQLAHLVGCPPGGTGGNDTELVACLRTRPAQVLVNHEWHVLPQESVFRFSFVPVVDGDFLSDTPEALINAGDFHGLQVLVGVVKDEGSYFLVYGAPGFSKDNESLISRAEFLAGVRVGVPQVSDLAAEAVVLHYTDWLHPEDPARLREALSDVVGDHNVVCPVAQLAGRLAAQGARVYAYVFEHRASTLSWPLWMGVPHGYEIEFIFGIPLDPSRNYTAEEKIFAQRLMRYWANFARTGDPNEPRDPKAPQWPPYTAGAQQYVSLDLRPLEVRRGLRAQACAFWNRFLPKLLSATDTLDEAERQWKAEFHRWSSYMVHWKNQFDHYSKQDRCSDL

COc1cc2c(cc1OC)C(=O)C(CC1CCN(Cc3ccccc3)CC1)C2 (stereo not drawn) [Donepezil]
%unfamiliar arm exploration ([1]; long-term memory (24 hours), donepezil 3 mg/kg p.o. + scopolamine 1 mg/kg i.p.): 39.94% | %unfamiliar arm exploration ([1]; short-term memory (30 min), donepezil 3 mg/kg p.o. + scopolamine 1 mg/kg i.p.): 40.79% | Locomotor activity, total number of arm entries (male ICR mice): 23.57 | Time to find the platform, Escape latency ([2]; acquisition phase Day 1, donepezil 3 mg/kg p.o. + scopolamine 1 mg/kg i.p.): 59.86 s | Time to find the platform, Escape latency ([2]; acquisition phase Day 2, donepezil 3 mg/kg p.o. + scopolamine 1 mg/kg i.p.): 49.00 s | Time to find the platform, Escape latency ([2]; acquisition phase Day 3, donepezil 3 mg/kg p.o. + scopolamine 1 mg/kg i.p.): 37.04 s | Time to find the platform, Escape latency ([2]; acquisition phase Day 4, donepezil 3 mg/kg p.o. + scopolamine 1 mg/kg i.p.): 27.71 s | Time to find the platform, Escape latency ([2]; acquisition phase Day 5, donepezil 3 mg/kg p.o. + scopolamine 1 mg/kg i.p.): 25.57 s | Time spent in the target quadrant ([2]; probe test day 6, donepezil 3 mg/kg p.o. + scopolamine 1 mg/kg i.p.): 18.39 s | Time spent exploring the familiar object [3, 5]: 32.11 s | Time spent exploring the novel object [3, 5]: 56.84 s | Time spent exploring the familiar object [3, 6]: 52.86 s | Time spent exploring the novel object [3, 6]: 64.31 s

COc1cc(OC)c2c(=O)cc(-c3ccccc3)oc2c1 [F1, 5,7-dimethoxyflavone]
IC50 (Aβ1-42; [7]): 105 ± 1.34 µM | IC50 (BChE): 92.19 ± 0.69 µM | IC50 (DPPH radical scavenging): > 100 µM | IC50 (AChE): 181 ± 2.66 µM | IC50 (ABTS radical scavenging): > 100 µM | viability at 0.1 µM [4]: 104% | viability at 1 µM [4]: 104% | viability at 10 µM [4]: 103% | viability at 100 µM [4]: 103% | IC50 (Aβ1-42 fibrils): 75.9 ± 4.96 µM

COc1cc(OC)c2c(=O)c(OC)c(-c3ccccc3)oc2c1 [F2, 3,5,7-trimethoxyflavone]
IC50 (Aβ1-42; [7]): 87.1 ± 4.51 µM | IC50 (BChE): 233 ± 6.89 µM | IC50 (DPPH radical scavenging): > 100 µM | IC50 (AChE; [8]): 237.1 ± 2.28 µM | IC50 (ABTS radical scavenging): > 100 µM | viability at 0.1 µM [4, 9]: 103% | viability at 1 µM [4, 10]: 102% | viability at 10 µM [4, 11]: 102% | viability at 100 µM [4, 12]: 94% | %Cell viability (cytotoxicity) (SH-SY5Y cells): toxic | IC50 (Aβ1-42 fibrils): 83.9 ± 1.67 µM

COc1ccc(-c2cc(=O)c3c(OC)cc(OC)cc3o2)cc1 [F3, 5,7,4′-trimethoxyflavone]
IC50 (Aβ1-42; [7]): 91.4 ± 4.67 µM | IC50 (BChE): 152 ± 6.14 µM | IC50 (DPPH radical scavenging): > 100 µM | IC50 (AChE): 106 ± 1.14 µM | IC50 (ABTS radical scavenging): > 100 µM | viability at 0.1 µM [4, 13]: 101% | viability at 1 µM [4, 14]: 102% | viability at 10 µM [4, 15]: 102% | viability at 100 µM [4, 16]: 95.5% | IC50 (Aβ1-42 fibrils): 39.5 ± 0.61 µM

COc1cc(O)c2c(=O)c(OC)c(-c3ccccc3)oc2c1 [F4, 5-hydroxy-3,7-dimethoxyflavone]
IC50 (Aβ1-42; [7]): 97.1 ± 2.38 µM | IC50 (BChE): 33.5 ± 2.97 µM | IC50 (DPPH radical scavenging): > 100 µM | IC50 (AChE; [8]): 217.6 ± 1.84 µM | IC50 (ABTS radical scavenging): > 100 µM | viability at 0.1 µM [4, 9]: 102% | viability at 1 µM [4, 10]: 103% | viability at 10 µM [4, 11]: 103% | viability at 100 µM [4, 12]: 80.5% | %Cell viability (cytotoxicity) (SH-SY5Y cells): toxic | IC50 (Aβ1-42 fibrils): 63.9 ± 1.83 µM

COc1ccc(-c2oc3cc(OC)cc(OC)c3c(=O)c2OC)cc1 [F5, 3,5,7,4′-tetramethoxyflavone]
IC50 (Aβ1-42): 134 ± 5.08 µM | IC50 (BChE): 164 ± 5.13 µM | IC50 (DPPH radical scavenging): > 100 µM | IC50 (AChE): 209.1 ± 0.82 µM | IC50 (ABTS radical scavenging): > 100 µM | viability at 0.1 µM [4, 13]: 99.9% | viability at 1 µM [4, 14]: 99.8% | viability at 10 µM [4, 15]: 98.8% | viability at 100 µM [4, 16]: 102% | IC50 (Aβ1-42 fibrils): 51.3 ± 3.13 µM

CN1[C@@H]2C[C@@H](OC(=O)[C@H](CO)c3ccccc3)C[C@H]1[C@@H]1O[C@@H]12 [Scopolamine]
%unfamiliar arm exploration ([1]; long-term memory (24 hours), scopolamine 1 mg/kg i.p. alone): 33.37% | %unfamiliar arm exploration ([1]; short-term memory (30 min), scopolamine 1 mg/kg i.p. alone): 31.09% | Time to find the platform, Escape latency ([2]; acquisition phase Day 1, scopolamine 1 mg/kg i.p. alone): 58.43 s | Time to find the platform, Escape latency ([2]; acquisition phase Day 2, scopolamine 1 mg/kg i.p. alone): 54.46 s | Time to find the platform, Escape latency ([2]; acquisition phase Day 3, scopolamine 1 mg/kg i.p. alone): 46.21 s | Time to find the platform, Escape latency ([2]; acquisition phase Day 4, scopolamine 1 mg/kg i.p. alone): 39.64 s | Time to find the platform, Escape latency ([2]; acquisition phase Day 5, scopolamine 1 mg/kg i.p. alone): 35.04 s | Time spent exploring the familiar object [3, 17]: 43.83 s | Time spent exploring the novel object [3, 17]: 27.21 s | Time spent exploring the familiar object [3, 18]: 63.40 s | Time spent exploring the novel object [3, 18]: 46.80 s

Cc1c(C)c2c(c(C)c1O)CCC(C)(C(=O)O)O2 (stereo not drawn) [Trolox, reference compound]
IC50 (DPPH radical scavenging): 24.6 ± 0.39 µM | IC50 (ABTS radical scavenging): 81.4 ± 4.67 µM
